Source: PubChem BioAssay AID434987 (Southern Research Specialized Biocontainment Screening …, 2010)
Calls of active or inactive are those of the source. The rule behind the calls is not given here.

System: M. tuberculosis H37Rv growth inhibition with meropenem
Assay: dose response, H37Rv, with and without meropenem (AID 434987);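 note: growth over 7 days at 37 °C before Alamar Blue read on day 9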
[1] = M. tuberculosis H37Rv growth inhibition, measured here: IC50 without meropenem
[2] = M. tuberculosis H37Rv growth inhibition, measured here: IC90 without meropenem
[3] = measured here: IC90 with meropenem

Structure (SMILES) | IC50 | IC50 [1] [µM] | IC90 [2] [µM] | IC90 [3] [µM]
CC(C)(C)c1ccc(OCc2ccc(C(=O)N/N=C3\CC4CC=CC34)cc2)cc1 (configuration not stated) | 26.2 µM (inactive) | 31.2 | 46.5 | 45.3
Cc1cc(C)c2c(N)c(S(=O)c3ccc(C(C)(C)C)cc3)sc2n1 (configuration not stated) | > 100 µM (inactive) | > 100 | > 100 | > 100
CC1CCN(C(=S)NC(=O)c2ccccc2)CC1 | 12 µM | 40.7 | 77.6 | 13.6
CN(C)c1ccc(N=Nc2cccc3ccoc23)cc1 | > 100 µM (inactive) | > 100 | > 100 | > 100
CCc1ccc(NC(=O)c2c(Cl)nc(C)c(Cl)c2C)cc1 | 7.1 µM | > 100 | > 100 | > 100
Nc1c2c(nc3sc4c(c13)CCCC4)-c1ccccc1CC2 | 6.11 µM | > 100 | > 100 | > 100
COc1ccc(-c2nc(-c3cccc(C)c3)no2)cc1OC | > 100 µM (inactive) | > 100 | > 100 | > 100
COc1ccc(C(=O)n2c(SC)nc3cc4c(cc32)OCCO4)cc1 | 34.3 µM | > 100 | > 100 | > 100
CC(=O)C1=C(C)NC(SCC(=O)c2ccccc2)=C(C#N)C1CC(C)C (configuration not stated) | 51.8 µM (inactive) | 88.5 | > 100 | > 100
COc1ccc(C2CC(c3c(-c4ccccc4)c4cc(Cl)ccc4[nH]c3=O)=NN2S(C)(=O)=O)cc1 (configuration not stated) | > 100 µM (inactive) | > 100 | > 100 | > 100
CCN(CCNC(=O)Nc1ccc(Cl)cc1)c1ccccc1 | > 100 µM (inactive) | > 100 | > 100 | > 100
CCN(CC)C(=O)COc1ccc(-c2nnc(Nc3ccc(OC)c(C(=O)NC)c3)c3ccccc23)cc1 | 68.8 µM (inactive) | 82.3 | > 100 | > 100
CCOC(=O)c1ccccc1NC(=O)C1COc2ccccc2O1 (configuration not stated) | 12.1 µM | 36.2 | > 100 | > 100
Cc1nc(SCC(=O)Nc2ccc(F)cc2)c(C#N)c(C)c1CC(=O)c1ccc(Br)cc1 | > 100 µM (inactive) | > 100 | > 100 | > 100
Cn1c(=O)c(C(=O)COC(=O)c2cc(C3CC3)nc3ccccc23)c(N)n(Cc2ccccc2)c1=O | > 100 µM (inactive) | > 100 | > 100 | > 100
CCO[C@H]1OC(C(=O)NCc2nc3ccccc3[nH]2)=C[C@@H](c2cn(C(C)=O)c3ccccc23)[C@@H]1CCCO | 90.7 µM (inactive) | 80 | > 100 | > 100
CCOc1cc(CNCCN(C)C)c(Cl)cc1OCC(=O)NCCc1ccccc1 | > 100 µM (inactive) | > 100 | > 100 | > 100
C/C(=N/NC(=O)c1cccs1)c1c(C)[nH]n(-c2nc3ccccc3s2)c1=O | 1.44 µM (inactive) | 1.52 | 1.69 | 1.58
NNC(=S)NC1CC2CC1C1C=CCC21 (configuration not stated) | 12.4 µM (inactive) | 21.1 | 23.9 | 13.5
COC(=O)c1cc(OC)c(OC)cc1NC(=S)N1CCN(C)CC1 | > 100 µM (inactive) | > 100 | > 100 | > 100
S=C(NNc1ccc2ccccc2c1)NC1CCCCC1 | 8.86 µM (inactive) | 20.4 | 46.7 | 41.3
CCC(C(=O)NC1C(=O)N2C(C(=O)O)=C(CSc3nnc(C)s3)CSC12)c1ccccc1 (configuration not stated) | 0.587 µM | > 100 | > 100 | 1.57
Cc1onc(NC(=O)c2ccc([N+](=O)[O-])o2)c1Br | 6.54 µM | 26.2 | 36 | 16.4
Nc1n[nH]c(N)c1N=Nc1cccc(F)c1 | > 100 µM (inactive) | > 100 | > 100 | > 100
COc1ccc(OC)c(C2CC(c3c(-c4ccccc4)c4cc(Cl)ccc4[nH]c3=O)=NN2S(C)(=O)=O)c1 (configuration not stated) | > 100 µM (inactive) | > 100 | > 100 | > 100
COCCNC(=O)COc1ccc(Oc2ccccc2)cc1 | 49.5 µM (inactive) | > 100 | > 100 | > 100
Fc1ccc(C2Nc3cccc4cccc(c34)N2)cc1 | > 100 µM (inactive) | > 100 | > 100 | > 100
COc1ccc(-c2cc(C(F)F)nc(-n3nc(C)cc3C)n2)cc1 | 24.3 µM (inactive) | 47.4 | > 100 | 54.1
